Results reported in ChEMBL document CHEMBL3228010, “Potential antitumor agents. 29. Quantitative structure-activity relationships for the antileukemic bisquaternary ammonium heterocycles” (J Med Chem, 1979).

Experiments:
Mus musculus = assay: Toxicity in ip dosed C3H X DBA2 F1 hybrid mouse […] with mouse L1210 cells on day 0 and dosed once daily on days 1 to 5 measured after 50 days; assay type: organism-based; details: in vivo, 1200 h
Bos taurus = organism: Bos taurus; assay: Displacement of ethidium from calf thymus DNA by fluorimetric method
[1] = Lipophilic-hydrophilic balance, Rm of the compound by partition chromatography; assay type: physicochemical
[2] = Displacement of ethidium from poly[d(A-T)]-poly[d(A-T)] DNA by fluorimetric method
[3] = Displacement of ethidium from poly[d(G-C)]-poly[d(G-C)] DNA (unknown origin) by fluorimetric method
L1210 [4] = assay: Antitumor activity against mouse L1210 cells […] in ip dosed C3H X DBA2 F1 hybrid mouse on day 0 and dosed once daily on days 1 to 5 assessed as increase in life span relative to control; assay type: functional
L1210 [5] = assay: Antitumor activity against mouse L1210 cells […] in ip dosed C3H X DBA2 F1 hybrid mouse on day 0 and dosed at LD10 level once daily on days 1 to 5 assessed as increase in life span relative to control; assay type: functional

With `C[n+]1ccc(Nc2ccc(/C=C/c3ccc(Nc4cc[n+](C)c5ccc(N)cc45)cc3)cc2)cc1.[Br-].[Br-]` the LD10 (Mus musculus) was 16 mg/kg, the C50 (Bos taurus) was 0.38 µM and the Rm [1] was 0.31. The C50 [2] was 0.15 µM, the C50 [3] was 0.53 µM and the D40 (L1210 [4]) was 1.8 mg/kg. The “log(ILSmax)” value (L1210 [5]) was 2.19.
`CC[n+]1ccc(Nc2ccc(NC(=O)c3ccc(Nc4cc[n+](CC)c5ccc(N)cc45)cc3)cc2)cc1.[Br-].[Br-]` gave an LD10 (Mus musculus) of 10 mg/kg, a C50 (Bos taurus) of 0.69 µM and a Rm [1] of 0.22. For the same molecule, the C50 [2] was 0.1 µM, the C50 [3] was 1.04 µM and the D40 (L1210 [4]) was 0.9 mg/kg. For the same molecule, the “log(ILSmax)” value (L1210 [5]) was 2.25.
In the case of `C[n+]1cccc(NC(=O)c2ccc(NC(=O)c3ccc(C(=O)Nc4ccc(C(=O)Nc5ccc[n+](C)c5)cc4)c(N)c3)cc2)c1.Cc1ccc(S(=O)(=O)[O-])cc1.Cc1ccc(S(=O)(=O)[O-])cc1`, the LD10 (Mus musculus) is reported as 20 mg/kg, the C50 (Bos taurus) is reported as 0.53 µM and the Rm [1] is reported as -0.63. For the same molecule, the C50 [2] was 0.37 µM, the C50 [3] was 0.93 µM and the D40 (L1210 [4]) was 3.9 mg/kg. The “log(ILSmax)” value (L1210 [5]) was 2.17.
For `C[n+]1cccc2cc(NC(=O)c3ccc(C(=O)Nc4ccc(NC(=O)c5ccc6c(ccc[n+]6C)c5)cc4)cc3)ccc21.Cc1ccc(S(=O)(=O)[O-])cc1.Cc1ccc(S(=O)(=O)[O-])cc1`, the LD10 (Mus musculus) was 90 mg/kg, the C50 (Bos taurus) was 0.3 µM and the Rm [1] was -0.57. It also gave a C50 [2] of 0.35 µM, a C50 [3] of 0.8 µM and a D40 (L1210 [4]) of 80 mg/kg. For the same molecule, the “log(ILSmax)” value (L1210 [5]) was 1.65.
Molecule `COc1cc(C(=O)Nc2ccc(C(=O)Nc3ccc[n+](C)c3)cc2)ccc1C(=O)Nc1ccc(C(=O)Nc2ccc[n+](C)c2)cc1.Cc1ccc(S(=O)(=O)[O-])cc1.Cc1ccc(S(=O)(=O)[O-])cc1` has an LD10 (Mus musculus) of 18 mg/kg, a C50 (Bos taurus) of 0.64 µM and a Rm [1] of 0.23. For the same molecule, the C50 [2] was 0.64 µM, the C50 [3] was 1.51 µM and the D40 (L1210 [4]) was 10.3 mg/kg. The “log(ILSmax)” value (L1210 [5]) was 1.72.
Work on `C[n+]1ccc(Nc2ccc(S(=O)(=O)Nc3ccc(Nc4c5ccccc5[n+](C)c5cc(N)ccc45)cc3)cc2)cc1.[O-][Cl+3]([O-])([O-])[O-].[O-][Cl+3]([O-])([O-])[O-]` yielded an LD10 (Mus musculus) of 35 mg/kg, a C50 (Bos taurus) of 0.1 µM and a Rm [1] of 0.57. For the same molecule, the C50 [2] was 0.07 µM, the C50 [3] was 0.12 µM and the D40 (L1210 [4]) was 5 mg/kg. The “log(ILSmax)” value (L1210 [5]) was 2.18.
In the case of `C[n+]1cccc(NC(=O)c2ccc(NC(=O)c3ccc(C(=O)Nc4ccc(C(=O)Nc5ccc[n+](C)c5)c(N)c4)cc3N)cc2)c1.Cc1ccc(S(=O)(=O)[O-])cc1.Cc1ccc(S(=O)(=O)[O-])cc1`, the LD10 (Mus musculus) is reported as 9 mg/kg, the C50 (Bos taurus) is reported as 0.39 µM and the Rm [1] is reported as -0.7. It also gave a C50 [2] of 0.15 µM, a C50 [3] of 0.54 µM and a D40 (L1210 [4]) of 1.4 mg/kg. The “log(ILSmax)” value (L1210 [5]) was 2.32.
In the case of `C[n+]1ccc(Nc2ccc(C(=O)Nc3ccc(Nc4cc[n+](C)c5ccc(N)cc45)cc3)cc2)cc1.Cc1ccc(S(=O)(=O)[O-])cc1.Cc1ccc(S(=O)(=O)[O-])cc1`, the LD10 (Mus musculus) is reported as 11 mg/kg, the C50 (Bos taurus) is reported as 0.6 µM and the Rm [1] is reported as 0.05. The C50 [2] was 0.12 µM, the C50 [3] was 1.2 µM and the D40 (L1210 [4]) was 1.2 mg/kg. For the same molecule, the “log(ILSmax)” value (L1210 [5]) was 2.3.
`C[n+]1ccc(Nc2ccc(NC(=O)c3ccc(Nc4cc[n+](C)c5cc(N)ccc45)cc3)cc2)cc1.[Br-].[Br-]` showed an LD10 (Mus musculus) of 11 mg/kg, a C50 (Bos taurus) of 0.68 µM and a Rm [1] of 0.08. It also gave a C50 [2] of 0.23 µM, a C50 [3] of 1.4 µM and a D40 (L1210 [4]) of 2 mg/kg. For the same molecule, the “log(ILSmax)” value (L1210 [5]) was 2.11.
In the case of `C[n+]1cccc(NC(=O)c2ccc(NC(=O)/C=C/c3ccc(C(=O)Nc4ccc(C(=O)Nc5ccc[n+](C)c5)cc4)cc3)cc2)c1.Cc1ccc(S(=O)(=O)[O-])cc1.Cc1ccc(S(=O)(=O)[O-])cc1`, the LD10 (Mus musculus) is reported as 100 mg/kg, the C50 (Bos taurus) is reported as 0.3 µM and the Rm [1] is reported as -0.95. It also gave a C50 [2] of 0.22 µM, a C50 [3] of 0.23 µM and a D40 (L1210 [4]) of 21 mg/kg. For the same molecule, the “log(ILSmax)” value (L1210 [5]) was 1.99.
For `C[n+]1ccc(Nc2ccc(C(=O)Nc3ccc(Nc4c5ccccc5[n+](C)c5cc(N)ccc45)cc3)cc2)cc1.[Cl-].[Cl-]`, the LD10 (Mus musculus) was 37 mg/kg, the C50 (Bos taurus) was 0.11 µM and the Rm [1] was 0.47. It also gave a C50 [2] of 0.06 µM, a C50 [3] of 0.16 µM and a D40 (L1210 [4]) of 2 mg/kg. The “log(ILSmax)” value (L1210 [5]) was 2.23.
`C[n+]1cc(-c2ccc(NC(=O)c3ccc(Nc4cc[n+](C)c5ccccc45)cc3)cc2)c(N)nc1N.Cc1ccc(S(=O)(=O)[O-])cc1.Cc1ccc(S(=O)(=O)[O-])cc1` gave an LD10 (Mus musculus) of 20 mg/kg, a C50 (Bos taurus) of 1.24 µM and a Rm [1] of -0.01. For the same molecule, the C50 [2] was 0.22 µM, the C50 [3] was 2.73 µM and the D40 (L1210 [4]) was 3.5 mg/kg. For the same molecule, the “log(ILSmax)” value (L1210 [5]) was 2.27.
Molecule `Br.C/C(=N\NC(=N)N)c1ccc(NC(=O)c2ccc(Nc3cc[n+](C)c4ccc(N)cc34)cc2)cc1.[Br-]` has an LD10 (Mus musculus) of 28 mg/kg, a C50 (Bos taurus) of 0.4 µM and a Rm [1] of -0.45. It also gave a C50 [2] of 0.11 µM, a C50 [3] of 0.5 µM and a D40 (L1210 [4]) of 2.1 mg/kg. The “log(ILSmax)” value (L1210 [5]) was 2.31.
`C[n+]1c2ccccc2c(Nc2ccc(NC(=O)Nc3ccc(NC(=N)NC(=N)N)cc3)cc2)c2ccc(N)cc21.Cl.[Cl-]` showed an LD10 (Mus musculus) of 200 mg/kg, a C50 (Bos taurus) of 0.09 µM and a Rm [1] of 0.46. For the same molecule, the C50 [2] was 0.06 µM, the C50 [3] was 0.13 µM and the D40 (L1210 [4]) was 8 mg/kg. For the same molecule, the “log(ILSmax)” value (L1210 [5]) was 2.48.
`C[n+]1ccc(Nc2ccc(NC(=O)/C=C/c3ccc(Nc4cc[n+](C)c5ccc(N)cc45)cc3)cc2)cc1.Cc1ccc(S(=O)(=O)[O-])cc1.Cc1ccc(S(=O)(=O)[O-])cc1` showed an LD10 (Mus musculus) of 40 mg/kg, a C50 (Bos taurus) of 0.46 µM and a Rm [1] of 0.03. For the same molecule, the C50 [2] was 0.09 µM, the C50 [3] was 0.41 µM and the D40 (L1210 [4]) was 1.6 mg/kg. For the same molecule, the “log(ILSmax)” value (L1210 [5]) was 2.24.
`C[n+]1cccc(NC(=O)c2ccc(NC(=O)c3ccc(C(=O)Nc4ccc(C(=O)Nc5ccc[n+](C)c5)cc4)c4ccccc34)cc2)c1.Cc1ccc(S(=O)(=O)[O-])cc1.Cc1ccc(S(=O)(=O)[O-])cc1` gave an LD10 (Mus musculus) of 140 mg/kg, a C50 (Bos taurus) of 1.5 µM and a Rm [1] of 0.45. It also gave a C50 [2] of 1.1 µM, a C50 [3] of 2.7 µM and a D40 (L1210 [4]) of 54.5 mg/kg. For the same molecule, the “log(ILSmax)” value (L1210 [5]) was 1.84.
For `CCC[n+]1ccc(Nc2ccc(NC(=O)c3ccc(Nc4cc[n+](CCC)c5ccccc45)cc3)cc2)cc1.[Br-].[Br-]`, the LD10 (Mus musculus) was 15 mg/kg, the C50 (Bos taurus) was 2.3 µM and the Rm [1] was 0.74. It also gave a C50 [2] of 0.2 µM, a C50 [3] of 3 µM and a D40 (L1210 [4]) of 8.8 mg/kg. For the same molecule, the “log(ILSmax)” value (L1210 [5]) was 1.81.
With `Cc1cc(C(=O)Nc2ccc(C(=O)Nc3ccc[n+](C)c3)cc2)ccc1C(=O)Nc1ccc(C(=O)Nc2ccc[n+](C)c2)cc1.Cc1ccc(S(=O)(=O)[O-])cc1.Cc1ccc(S(=O)(=O)[O-])cc1` the LD10 (Mus musculus) was 14 mg/kg, the C50 (Bos taurus) was 1.2 µM and the Rm [1] was 0.06. The C50 [2] was 1 µM, the C50 [3] was 2.4 µM and the D40 (L1210 [4]) was 5.7 mg/kg. The “log(ILSmax)” value (L1210 [5]) was 2.09.
In the case of `CCC[n+]1cccc(NC(=O)c2ccc(NC(=O)c3ccc(C(=O)Nc4ccc(C(=O)Nc5ccc[n+](CCC)c5)c(N)c4)c(N)c3)cc2N)c1.Cc1ccc(S(=O)(=O)[O-])cc1.Cc1ccc(S(=O)(=O)[O-])cc1`, the LD10 (Mus musculus) is reported as 10 mg/kg, the C50 (Bos taurus) is reported as 0.26 µM and the Rm [1] is reported as -0.51. It also gave a C50 [2] of 0.08 µM, a C50 [3] of 0.48 µM and a D40 (L1210 [4]) of 2.2 mg/kg. For the same molecule, the “log(ILSmax)” value (L1210 [5]) was 2.1.
`C[n+]1cccc(NC(=O)c2ccc(NC(=O)c3ccc(C(=O)Nc4ccc(C(=O)Nc5ccc[n+](C)c5)cc4)c(Cl)c3)cc2)c1.Cc1ccc(S(=O)(=O)[O-])cc1.Cc1ccc(S(=O)(=O)[O-])cc1` showed an LD10 (Mus musculus) of 30 mg/kg, a C50 (Bos taurus) of 1 µM and a Rm [1] of 0.05. It also gave a C50 [2] of 0.95 µM, a C50 [3] of 2 µM and a D40 (L1210 [4]) of 5.6 mg/kg. The “log(ILSmax)” value (L1210 [5]) was 2.11.
